Measurements taken from PMC8175350, “Drug repurposing screens identify chemical entities for the development of COVID-19 interventions” (Nature Communications, 2021).
Like-named read-outs stand apart in the source and are kept apart here.

Columns and labels:
SARS-CoV-2 [1] = assay: microbe, parasite or virus in culture; assay type: cell-based
[2] = Uninfected HeLa-ACE2 24 h live/dead cytotoxicity counter screen; assay type: cell-based, human; conditions: human, uninfected HeLa-ACE2 cells; read-out: HeLa-ACE2 uninfected cytotoxicity CC50 GeoMean
HeLa-ACE2 cells [3] = assay: as above; assay type: cell-based, human; conditions: curve plateau at infinite concentration
SARS-CoV-2 [4] = assay: microbe, parasite or virus in culture; assay type: cell-based; remark: listed apart in the source
SARS-CoV-2 [5] = assay: microbe, parasite or virus in culture; assay type: cell-based; remark: listed apart in the source
SARS-CoV-2 [6] = assay type: cell-based; conditions: combination with remdesivir, synergy score δ
HeLa-ACE2 cells [7] = assay: Total cell count in the HeLa-ACE2 TOA assay; assay type: cell-based; conditions: Homo sapiens
Text: Supplement 41467_2021_23328_MOESM3_ESM.xlsx, sheet "Table S1" | column: HeLa-ACE2 TOA cell count

HeLa-ACE2 cells [8] = assay: cells; conditions: Homo sapiens
Calu-3 cells [9] = assay: cells; conditions: Homo sapiens
in vitro = conditions: human, Calu-3 uninfected cytotoxicity CC50 GeoMean
HepG2 = HepG2 72 h CellTiter-Glo cytotoxicity; conditions: 72 h
HEK293T = HEK293T 72 h CellTiter-Glo cytotoxicity; conditions: 72 h
Calu-3 cells [10] = assay: Uninfected Calu-3 48 h Cell-Titer Glo cytotoxicity counter screen; conditions: curve plateau at infinite concentration

SMILES: C=CC(=O)Nc1cc(Nc2nccc(-c3cn(C)c4ccccc34)n2)c(OC)cc1N(C)CCN(C)C [AZD-9291/Osimertinib]
- Emax (SARS-CoV-2 [1]; Severe acute respiratory syndrome coronavirus 2, HeLa-ACE2, 24 h, curve plateau at infinite concentration, read-out: HeLa-ACE2 CoV-2 Sinf Average): 100%
- EC50 (SARS-CoV-2 [1]; Severe acute respiratory syndrome coronavirus 2, HeLa-ACE2, detail column, read-out: HeLa-ACE2 CoV-2 EC50 GeoMean): 962 nM
- CC50 at 24 h [2]: > 18100 nM
- HeLa-ACE2 uninfected cytotoxicity Sinf Average (HeLa-ACE2 cells [3]): -100%
- Emax (SARS-CoV-2 [4]; Severe acute respiratory syndrome coronavirus 2, Calu-3, 48 h, curve plateau at infinite concentration, read-out: Calu-3 CoV-2 Sinf Average): 100%
- EC50 (SARS-CoV-2 [4]; Severe acute respiratory syndrome coronavirus 2, Calu-3, detail column, read-out: Calu-3 CoV-2 EC50 GeoMean): > 1590 nM
- Emax (SARS-CoV-2 [5]; Severe acute respiratory syndrome coronavirus 2, HeLa-ACE2, 10 h, curve plateau at infinite concentration, read-out: HeLa-ACE2 TOA CoV-2 Sinf Average): 100%
- EC50 (SARS-CoV-2 [5]; Severe acute respiratory syndrome coronavirus 2, HeLa-ACE2, read-out: HeLa-ACE2 TOA CoV-2 EC50 GeoMean): > 7850 nM
- HeLa-ACE2 synergy score with remdesivi [δ] (SARS-CoV-2 [6]): -0.722
- Emax (HeLa-ACE2 cells [7]; HeLa-ACE2, 10 h, curve plateau at infinite concentration, read-out: HeLa-ACE2 TOA cell count Sinf Average): -100%
- EC50 (HeLa-ACE2 cells [7]; HeLa-ACE2, read-out: HeLa-ACE2 TOA cell count EC50 GeoMean): > 9600 nM
- Emax (HeLa-ACE2 cells [8]; HeLa-ACE2, 24 h, read-out: HeLa-ACE2 cell count Sinf Average): 98%
- EC50 (HeLa-ACE2 cells [8]; HeLa-ACE2, read-out: HeLa-ACE2 cell count EC50 GeoMean): > 4230 nM
- Emax (Calu-3 cells [9]; Calu-3, 48 h, read-out: Calu-3 cell count Sinf Average): -100%
- EC50 (Calu-3 cells [9]; Calu-3, read-out: Calu-3 cell count EC50 GeoMean): > 9980 nM
- CC50 (in vitro): 1690 nM
- HepG2 72-hour cytotoxicity Sinf Average (HepG2): -107%
- HEK293T 72-hour cytotoxicty Sinf Average (HEK293T): -103%
- Calu-3 uninfected cytotoxicity Sinf Average (Calu-3 cells [10]): -89%
